Where “and” joins values, the source holds several entries; their conditions need not be identical. Identical values can stand only once. Entries after “also recorded” stand apart in the source; their conditions may differ.
Legend:
Au565 cells [1] = experiment: Acylcarnitines (byproducts of mitochondrial fatty acid oxidation) by MS/MS in treated Au565 cells; type: cell-based; conditions: Au565 cell pellet, GW2974 25 μM, 2 days
Description: (§1) In addition, tyrosine kinase inhibitors can be used to reduce fat in cells, particularly cells that are otherwise normal or that lack protein tyrosine kinase activity mediated disease. To this end at least a portion of a mammal or tissue can be treated with a kinase inhibitor such that the amount of lipid in the cells is reduced. Any suitable kinase inhibitor can be used. Methods for determining suitable inhibitors are well known. For example, samples of adipocytes can be grown in the presence and absence of a kinase inhibitor and stained with Oil red 0 by known methods to determine whether the kinase inhibitor causes a reduction in stored fat. Those kinase inhibitors that cause an observable reduction in fat storage are suitable for the present invention. Exemplary kinase inhibitors that are suitable for the invention include erbB inhibitors, especially including GW2974, GW572016, and the like. […] Au565 cells were grown under normal conditions known in the art and treated for 2 days with GW2974 (25 μM). The cells were collected, washed and sonicated in water (2,000,000 cells in 200 μL of water). The cells were spun down and were tested for acylcamitines (byproducts of mitochondrial fatty acid oxidation) by MS/MS for intraceullar metabolites.

Au565 cells [2] = experiment: Microarray mRNA expression profile of Au565 cells treated with GW2974; type: cell-based, human; conditions: GW2974 25 μM vs untreated
Procedure: Au565 cells were grown under normal conditions and were untreated or treated with GW2974 (25 μM). Cells were pelleted, snap frozen in liquid nitrogen and subjected to microarray analysis. RNA was isolated using the Agilent Total RNA Isolation Kit. Cy3 and Cy5 labeled cRNA was prepared using the Agilent Low RNA Input Fluorescent Linear Amplification Kit. Labeled cRNAs were hybridized to a G4110A Human 1A(V2) microarray consisting of 60-mer oligonucleotides representing over 18K well-characterized, full length, human genes.

Au565 cells [3] = experiment: Oil red lipid staining of Au565 cells; type: cell-based; conditions: FIG. 2 and FIG. 3
[4] = tested on: primary human cardiac myocytes; experiment: Lipid staining of cardiomyocytes; type: cell-based; conditions: FIG. 4
Description: FIG. 4 are photographs of primary human cardiac myocytes grown under various conditions and stained for lipids.
FIG. 5 is a bar graph illustrating the percentage of human cardiomyocytes testing positive for lipids under various conditions.

[5] = tested on: normal fat cells grown in culture; experiment: Lipid stored in cultured fat cells (Oil red O staining); type: cell-based; conditions: normal fat cells (adipocytes) grown in culture, also cardiac cells
Description: Such studies can be conducted using Oil red 0 staining for lipids.
as §1, with “To” for “In addition, tyrosine kinase inhibitors can be used to reduce fat in cells, particularly cells that are otherwise normal or that lack protein tyrosine kinase activity mediated disease. To”, “Those kinase inhibitors that cause an observable reduction in fat storage are suitable for the present invention.” left out

[6] = tested on: MDA-MB-468 breast cancer cells; experiment: Intracellular calcium detected by Fluoro-4; type: cell-based; conditions: MDA-MB-468 cells, Fluoro-4, FIG. 6
Description: FIG. 6 are photographs of MDA-MB-468 cells treated by GW-2974 and intracellular Ca detected by Fluoro-4.
(§2) This can be seen in MDA-MB-468 breast cancer cells where calcium is detected by fluorescently by Fluoro-4. This redistribution of calcium results in the activation and phosphorylation of AMPK. Activated AMPK represses translation by phosphorylation of the translation factor eEF-2 (FIG. 7), which inactivates eEF-2 and represses protein synthesis, a known effect of TKIs.

Au565 cells [7] = experiment: Western blot for p-eEF-2; type: cell-based; conditions: FIG. 7A
Description: FIG. 7A a photograph of a Western Blot showing the affect of certain tyrosine kinase inhibitors on expression p-eEF2 and p-AMPKα.
as §2

Au565 cells [8] = experiment: p-eEF-2 expression by IHC; type: cell-based; conditions: FIG. 7B
Description: FIG. 7B is a photograph of stained cells showing the expression of p-eEF2 in Au565 cells in the presence of various compounds.

cardiomyocytes cells = experiment: ERRα and MCAD in cardiomyocytes treated with kinase inhibitors; type: cell-based; conditions: FIG. 8
Description: FIG. 8 is a photograph of ERRα and MCAD in cardiomyocytes cells with and without treatment by various kinase inhibitors.
ERRα plays a role in lipid metabolism in cardiac cells, and MCAD is an enzyme that breaks down lipids and fatty acids. Mutations in MCAD is a common genetic disorder, especially in those of northern European descent.

[9] = tested on: HER2-expressing human cardiomyocytes; experiment: AMPK activation, ATP production and TNFα-induced apoptosis in cardiomyocytes; type: cell-based

For `CN(C)c1cc2c(Nc3ccc4c(cnn4Cc4ccccc4)c3)ncnc2cn1` [GW2974], the “Acylcarnitines C2” value (Au565 cells [1]) was 258.88 pmoles of protein, the “Acylcarnitines C16” value (Au565 cells [1]) was 0.83 pmoles of protein and the “Acylcarnitines C18:1” value (Au565 cells [1]) was 4.1 pmoles of protein. For the same molecule, the “ACAT2: GW2974 change compared to control” value (Au565 cells [2]) was −5.3, the “AKAP5: GW2974 change compared to control” value (Au565 cells [2]) was −7.3x and the “AVIL: GW2974 change compared to control” value (Au565 cells [2]) was 4.2x. The “BBOX1: GW2974 change compared to control” value (Au565 cells [2]) was 5.1, the “CAMK4: GW2974 change compared to control” value (Au565 cells [2]) was 4.5x and the “CASK: GW2974 change compared to control” value (Au565 cells [2]) was −4.2x. For the same molecule, the “CCR2: GW2974 change compared to control” value (Au565 cells [2]) was −5.0x, the “CD38: GW2974 change compared to control” value (Au565 cells [2]) was −4.4x and the “CLCA1: GW2974 change compared to control” value (Au565 cells [2]) was −6.7x. For the same molecule, the “CLSP: GW2974 change compared to control” value (Au565 cells [2]) was −4.0x, the “CYP2C8: GW2974 change compared to control” value (Au565 cells [2]) was 4.5x and the “ELOVL2: GW2974 change compared to control” value (Au565 cells [2]) was −4.4x. The “FABP1: GW2974 change compared to control” value (Au565 cells [2]) was −7.2, the “FASN: GW2974 change compared to control” value (Au565 cells [2]) was −4.3x and the “FKSG14: GW2974 change compared to control” value (Au565 cells [2]) was −4.6x. For the same molecule, the “FLJ12476: GW2974 change compared to control” value (Au565 cells [2]) was 5.0x, the “FREQ: GW2974 change compared to control” value (Au565 cells [2]) was −5.3x and the “GLS: GW2974 change compared to control” value (Au565 cells [2]) was 5.1. For the same molecule, the “GNB5: GW2974 change compared to control” value (Au565 cells [2]) was −4.1x, the “GSTT2: GW2974 change compared to control” value (Au565 cells [2]) was −5.3 and the “HPCAL1: GW2974 change compared to control” value (Au565 cells [2]) was −4.5x. For the same molecule, the “HSPA8: GW2974 change compared to control” value (Au565 cells [2]) was −4.2x, the “LDLR: GW2974 change compared to control” value (Au565 cells [2]) was −5.2x and the “NRXN3: GW2974 change compared to control” value (Au565 cells [2]) was 4.58x and 4.6x. For the same molecule, the “PFKL: GW2974 change compared to control” value (Au565 cells [2]) was −4.7, the “PRKG1: GW2974 change compared to control” value (Au565 cells [2]) was 6.5x and 6.51x and the “SAT: GW2974 change compared to control” value (Au565 cells [2]) was 4.4. The “SCN1A: GW2974 change compared to control” value (Au565 cells [2]) was 4.1x, the “SOAT1: GW2974 change compared to control” value (Au565 cells [2]) was −4.0x and the “STK33: GW2974 change compared to control” value (Au565 cells [2]) was −5.3x. For the same molecule, the “TGFβ1: GW2974 change compared to control” value (Au565 cells [2]) was 5.31x, the “S100A9: GW2974 change compared to control” value (Au565 cells [2]; Table IV A) was −5.5x and the “S100A9: GW2974 change compared to control” value (Au565 cells [2]; Table IV C) was −5.4. For the same molecule, the “lipids in Au565 cells (oil red staining)” value (Au565 cells [3]) was “reduced”, the “lipids in cardiomyocyte cells compared with untreated cells” value [4] was “not decrease” and the “lipid stored within fat cells” value [5] was “rapidly disappears; also recorded: lose lipid”. For the same molecule, the intracellular calcium distribution [6] was “redistribution of intracellular calcium”, the “p-eEF-2 by western blot” value (Au565 cells [7]) was “dramatically increased” and the “p-eEF-2 expression by IHC” value (Au565 cells [8]) was “do”. For the same molecule, the MCAD expression (cardiomyocytes cells) was “completely absent”, the AMPK activation [9] was “can activate AMPK” and the ATP production [9] was “increases ATP production”. For the same molecule, the “cardiomyocyte apoptosis / cell death induced by TNFα” value ([9]; TNFα) was “protecting against apoptosis induced by TNFα”.

For `COc1cc2ncnc(Nc3ccc(F)c(Cl)c3)c2cc1OCCCN1CCOCC1` [Iressa], the “p-eEF-2 expression by IHC” value (Au565 cells [8]) was “do”.

With `CS(=O)(=O)CCNCc1ccc(-c2ccc3ncnc(Nc4ccc(OCc5cccc(F)c5)c(Cl)c4)c3c2)o1` [lapatinib] the “lipid stored within fat cells” value [5] was “loss of fat” and the “lipid stored within fat cells” value ([5]; listed as GW572016) was “rapidly disappears”.
